Measurements taken from patent US9157122B2, “Method of diagnosing cancer and reagents therefor” (Garvan Institute of Medical Research, priority 2004, dated 2015).

Assays:
Type in all cases: cell-based, human
[1] = tested on: HCT116 cells; test: ChIP assay with anti-acetylated histone antibody in treated HCT116 cells, real-time PCR; settings: relative to untreated cells, FIG. 18
Procedure: ChIP assays were carried out according to the manufacturer (Upstate Biotechnology) and described in Stirzaker et al., Cancer Res 64: 3871-3877, 2004. Briefly, ˜1×10^6 HCT116 cells, in a 10 cm dish, were fixed by adding formaldehyde at a final concentration of 1% and incubating for 10 minutes at 37° C. The cells were washed twice with ice cold PBS containing protease inhibitors (1 mM phenylmethylsulfonyl fluoride (PMSF), 1 μg/ml aprotinin and 1 μg/ml pepstatin A), harvested and treated with SDS lysis buffer for 10 min on ice. The resulting lysates were sonicated to shear the DNA to fragment lengths of 200 to 500 basepairs. The complexes were immunoprecipitated with an antibody specific for dimethyl-histone H3(lys9), Upstate Biotechnology (#07-212) or acetylated histone. […]
The amount of target that was immunoprecipitated, was measured by Real-Time PCR using the ABI Prism 7900HT Sequence Detection System. […] Standard deviation was calculated using the Comparative method (ABI PRISM 7700 Sequence Detection System User Bulletin #2, 1997 (P/N 4303859). For each sample an average CT value was obtained for immunoprecipitated material and for the input chromatin. The difference in CT values (delta CT) reflects the difference in the amount of material that was immunoprecipitated relative to the amount of input (ABI PRISM 7700 Sequence Detection system User Bulletin #2, 1997 (P/N 4303859).

[2] = tested on: HCT116 cells; test: ChIP assay with anti-dimethyl-histone H3(lys9) antibody in treated HCT116 cells, real-time PCR; settings: relative to untreated cells; for methylation of H3-K9 histones associated with the p21 CpG island promoter region: FIG. 17a; for methylation of H3-K9 histones associated with the unmethylated genes (DDX18, INSIG2, PTPN, RALBB): FIG. 17g-k; for binding of methylated K9-H3 histones to DNA methylated genes (EN1, SCTR, INHBB, GLI2, MARCO): FIGS. 17b-f
Procedure: ChIP assays were carried out according to the manufacturer (Upstate Biotechnology) and described in Stirzaker et al., Cancer Res 64: 3871-3877, 2004. Briefly, 1×10^6 HCT116 cells, in a 10 cm dish, were fixed by adding formaldehyde at a final concentration of 1% and incubating for 10 minutes at 37° C. The cells were washed twice with ice cold PBS containing protease inhibitors (1 mM phenylmethylsulfonyl fluoride (PMSF), 1 μg/ml aprotinin and 1 μg/ml pepstatin A), harvested and treated with SDS lysis buffer for 10 min on ice. The resulting lysates were sonicated to shear the DNA to fragment lengths of 200 to 500 basepairs. […] No antibody controls were also included for each ChIP assay and no precipitation was observed. The antibody/protein complexes were collected by salmon sperm DNA/protein A agarose slurry and washed several times following the manufacturer's instructions. The immune complexes were eluted with 1% SDS and 0.1 M NaHCO3 and the crosslinks were reversed by incubation at 65° C. for 4 hours in the presence of 200 mM NaCl. The samples were treated with proteinase K for 1 hour and the DNA was purified by phenol/chloroform extraction, ethanol precipitation and resuspended in 30 μl H2O. The amount of target that was immunoprecipitated, was measured by Real-Time PCR using the ABI Prism 7900HT Sequence Detection System. Amplification primers are set forth SEQ ID NOs: 235 to 256. PCR reactions were set up according to the SDS compendium (ver 2.1) for the 7900HT Applied Biosystems Sequence Detector as described previously (Stirzaker, supra). Either immunoprecipitated DNA, no-antibody control or input chromatin were used in each PCR and the PCRs were set up in triplicate. Standard deviation was calculated using the Comparative method (ABI PRISM 7700 Sequence Detection System User Bulletin #2, […] 4303859). For each sample an average CT value was obtained for immunoprecipitated material and for the input chromatin. The difference in CT values (delta CT) reflects the difference in the amount of material that was immunoprecipitated relative to the amount of input (ABI PRISM 7700 Sequence Detection system User Bulletin #2, […] 4303859). To determine if chromatin modification was associated with the suppression of all the genes across the entire band in cancer, regardless of the DNA methylation status, ChIP (chromatin immunoprecipitation) analysis and real-time PCR was performed.

[3] = tested on: HCT116 cells; test: Real-time RT-PCR gene expression in HCT116 cells treated with 5-Aza-2′-deoxycytidine and/or TSA; settings: for expression of CpG island-associated genes that are unmethylated and transcriptionally repressed: DDX18, INSIG2, PTPN, RALBB, TSN, FIG. 16g-k; for expression of genes hypermethylated in HCT116 (EN1, SCTR and INHBB): genes linked to 2q14.2, FIG. 16b, c and d
Procedure: RNA was extracted using Trizol reagent (Invitrogen) according to the manufacturer's protocol. cDNA was reverse transcribed from 2 μg of total RNA using SuperScriptTM III RNase H^- Reverse Transcriptase (Invitrogen Life technologies), according to the manufacturer's instructions. The reaction was primed with 200 ng of random hexamers (Roche). The reverse transcription reaction was then diluted 1:20 with sterile H2O before addition to a PCR reaction. […] The primers used for amplification comprise a sequence set forth in any one of SEQ ID Nos 119 to 218. Primers were used in a combination described herein. To control for the amount and integrity of the RNA, the Human 18S ribosomal RNA (rRNA) kit (P/N 4308329) (Applied Biosystems), containing the rRNA forward and reverse primers and rRNA VICTM probe, was used. 5 μl of the reverse transcription was used in a 20 μl reaction in TaqMan Universal PCR Master Mix (P/N 4304437) with 1 μl of the 20× Human 18S rRNA mix. The reactions were performed in triplicate and the standard deviation was calculated using the Comparative method (ABI PRISM 7700 Sequence Detection system User Bulletin #2, […] 4303859). The cycle number corresponding to where the measured fluorescence crosses a threshold is […] to the amount of starting material. The mean expression levels are represented as the ratio between each gene and 18S rRNA expression. The colon cancer cell line HCT116 was cultured in D-MEM/F12 (Gibco/BRL) medium supplemented with MEM sodium pyruvate and L-Glutamine and 10% fetal calf serum at 37° C. with 10% CO2. Cells were split 1:8 every 3-4 days. Cells were split 12 h to 24 h prior to treatment. 5-Aza-2'-deoxycytidine (5-aza-dC)(Sigma) was prepared as a 1 mg/ml stock in sterile water, filter-sterilized and frozen as aliquots. 100 mm tissue culture dishes were seeded with 0.5×10^6 cells and following 24 h incubation the cells were treated with 0.5 μm 5-aza-dC. The cells were treated for 24 hours after which the medium was replaced with fresh medium and the cells cultured for a further 48 h before harvesting. Cells were treated with trichostatin A (TSA) (Sigma) at 25, 50 and 100 nM for 24 h. Alternatively, an identical volume of ethanol was used as a control. For co-treatment of cells with 5-aza-dC and TSA, 5-aza-dC was added initially for 24 h, after which it was removed and TSA was added for a further 24 h. The concentrations and the treatment conditions used were chosen based on preliminary studies showing optimal reactivation of gene expression. Expression levels of the genes DDX18, INSIG2, EN1, MARCO, PTPN4, RALBB, GLI2 and TSN was determined essentially as described above.

| SMILES | H3-K9 acetylation for genes hypermethylated in HCT116 cells [1] | methylation of H3-K9 histones associated with the p21 CpG island promoter region [2] | methylation of H3-K9 histones associated with the unmethylated genes (DDX18, INSIG2, PTPN, RALBB) [2] | binding of methylated K9-H3 histones to DNA methylated genes (EN1, SCTR, INHBB, GLI2, MARCO) [2] | p21 expression activated (control gene) ([3]; 0.5 μm 5-aza-dC 24 h, TSA 24 h, co-treatment 5-aza-dC 24 h then TSA 24 h, normalised to 18S RNA, FIG. 16a) | expression of CpG island-associated genes that are unmethylated and transcriptionally repressed [3] | expression of genes hypermethylated in HCT116 (EN1, SCTR and INHBB) [3] |
| --- | --- | --- | --- | --- | --- | --- | --- |
| CC(/C=C/C(=O)NO)=C\[C@@H](C)C(=O)c1ccc(N(C)C)cc1 [TSA, trichostatin A] | Increased H3-K9 acetylation | substantial demethylation | substantial demethylation | binding was reduced | more than 3 fold | some reactivation | small increases of expression |
| Nc1ncn([C@H]2C[C@H](O)[C@@H](CO)O2)c(=O)n1 [5AzaC, 5-Aza-2′-deoxycytidine] |  | Demethylation of the H3-K9 histones also occurred | resulted in demethylation | binding was reduced |  | some reactivation | small increases of expression |
